According to patent US9370529B2, “Tannin inhibitors of HIV” (priority 2012, dated 2016):

What was measured:
CXCR4 tropic HIV NL4-3 = assay: HIV-infection study in HeLa37 cells (HIV antigen-positive cell count, % control); assay type: cell-based, HIV-1; details: for TI (therapeutic index, cytotoxicity/antiviral activity): CC50/IC50; for IC50: Human immunodeficiency virus 1, NL43, HeLa37 cells, 40 h, MOI=0.01, FIG. 1/FIG. 2, read-out: IC50 (anti-HIV activity)
Protocol: Stocks of HIV-1 were generated by transfecting a 150 cm plate of 80% confluent HEK 293T cells with 75 μg of the HIV molecular clone pNL4-3 by using the CaPO4 procedure of F. L. Graham et al., J. Gen. Viol., 36, 59 (1977). Supernatants were collected at 48-h post-transfection, clarified to remove cell debris and frozen at −80° C. until needed. Virus production was assessed by reverse transcriptase activity in the viral stocks and by the single round of infection assay in HeLa37 cells described below. RT assays were performed as described by R. L. Wiley, PNAS USA, 83, 5038 (1986).
(§1) All extracts or fractions were resuspended in DMSO. 2.5×10^2 infectious particles of HIV (MOI=0.01) were combined with the concentrations of IA or IB noted in the figures. The amount of DMSO was adjusted so that equivalent concentrations of DMSO were used in all wells. […] The tannin and HIV mixture was added to 2.5×10^4 cells/well of HeLa37 cells in a 48-well format. The cells were maintained for 40 h at 37° C. in a CO2 incubator. Cells were fixed in 75% acetone/25% water and immunostained for HIV antigens with human anti-HIV antisera (1:500) followed by HRP-conjugated goat anti-human IgG (1:500). 3-amino-9-ethyl-carbazole was used as the horse radish peroxidase substrate. Plates were dried and wells were counted for the number of HIV antigen-positive cells.

CCR5 tropic HIV AD8 = assay: HIV-infection study in HeLa37 cells, CCR5 tropic virus; assay type: cell-based; details: FIG. 2; equivalent concentrations
Protocol: as §1

[1] = Cell-viability study (ATPLite Assay); assay type: cell-based; details: human; HeLa37 cells, 40 h after treatment initiation
Protocol: HeLa37 cells were plated and treated with IA or IB as described above. Cell viability was monitored at 40 h after treatment initiation by ATPLite Assay (Packard Biosciences) per manufacturer's instructions.

| SMILES | TI (therapeutic index, cytotoxicity/antiviral activity) (CXCR4 tropic HIV NL4-3) | Inhibition of CXCR4 (NL4-3) tropic HIV strain (CXCR4 tropic HIV NL4-3; FIG. 2) | IC50 (CXCR4 tropic HIV NL4-3) [nM] | Enhancement of the antiviral activity of AMD3100 (CXCR4 tropic HIV NL4-3; combination with 3 μM AMD3100, increasing concentrations of IB, HIV NL-4-3, FIG. 3) | Inhibition of CCR5 (AD8) tropic HIV strain (CCR5 tropic HIV AD8) | CC50 at 40 h [1] [nM] |
| --- | --- | --- | --- | --- | --- | --- |
| CO[C@@H]1OC2COC(=O)c3cc(O)c(O)c(O)c3-c3c(cc(O)c(O)c3O)C(=O)O[C@H]2C(OC(=O)c2cc(O)c(O)c(O)c2)C1OC(=O)c1cc(O)c(O)c(O)c1 (stereo partly drawn) [Tannin IB, (11aR,13S,14R,15S,15aR)-2,3,4,5,6,7-hexahydroxy-13-methoxy-9,17-dioxo-9,11,11a,13,14,15,15a,17-octahydrodibenzo[g,i]pyrano[3,2-b][1,5]dioxacycloundecine-14,15-diyl-bis (3,4,5-trihydroxybenzoate)] | about 900 | effectively able to inhibit | ~120 | more than a log | effectively able to inhibit | > 100000 |
| CO[C@@H]1OC2COC(=O)c3cc(O)c(O)c(O)c3-c3c(cc(O)c(O)c3O)C(=O)O[C@H]2C(O)C1O (stereo partly drawn) [Tannin IA, (11aR,13S,14R,15R,15aS)-2,3,4,5,6,7,14,15-octahydroxy-13-methoxy-11,11a,13,14,15,15a-hexahydrodibenzo[g,i]pyrano[3,2-b][1,5]dioxacycloundecine-9,17-dione] | ~909 |  | ~110 |  |  | ~100000 |
